system: Maximal electroshock seizures; assay: MES maximal electroshock seizure test, mice ip; assay type: in vivo; conditions: Mus musculus, ip, 0.5 h, 100 mg/kg, 30 min; read-out: MES, animals protected/tested (converted)
Procedure: Three tests were performed:
1. MES--Electroshock Seizure Test
(§1) Maximal electroshock seizures are elicited with a 60-cycle alternating current of 50 mA intensity (5-7 times that necessary to elicit minimal electroshock seizures) delivered via corneal electrodes for 0.2 seconds. A drop of 0.9% saline is instilled in the eye prior to application of the electrodes in order to […].

Row | Structure (SMILES) | responders at 100 mg/kg [%]
1 | O=C1C=C(NCc2ccccc2)CCC1 [Compound 148] | 100
2 | CC(C)(C)c1ccc(NC2=CC(=O)CCC2)cc1 [Compound 150] | 100
3 | O=C1C=C(Nc2ccc(C(F)(F)F)cc2)CCC1 [Compound 151] | 100

same assay, conditions: Mus musculus, ip, 0.5 h, 300 mg/kg, 30 min; read-out: MES, animals protected/tested

Row | Structure (SMILES) | responders at 300 mg/kg [%]
4 | O=C1C=C(NCc2ccccc2)CCC1 [Compound 148] | 100
5 | CC(C)(C)c1ccc(NC2=CC(=O)CCC2)cc1 [Compound 150] | 100
6 | O=C1C=C(Nc2ccc(C(F)(F)F)cc2)CCC1 [Compound 151] | 100

same assay, conditions: Mus musculus, ip, 4 h, 100 mg/kg, 4 h; read-out: MES, animals protected/tested (converted)

Row | Structure (SMILES) | responders at 100 mg/kg [%]
7 | O=C1C=C(NCc2ccccc2)CCC1 [Compound 148] | 0
8 | CC(C)(C)c1ccc(NC2=CC(=O)CCC2)cc1 [Compound 150] | 0
9 | O=C1C=C(Nc2ccc(C(F)(F)F)cc2)CCC1 [Compound 151] | 0

same assay, conditions: Mus musculus, ip, 4 h, 300 mg/kg, 4 h; read-out: MES, animals protected/tested

Row | Structure (SMILES) | responders at 300 mg/kg [%]
10 | O=C1C=C(NCc2ccccc2)CCC1 [Compound 148] | 0
11 | CC(C)(C)c1ccc(NC2=CC(=O)CCC2)cc1 [Compound 150] | 100
12 | O=C1C=C(Nc2ccc(C(F)(F)F)cc2)CCC1 [Compound 151] | 100

system: not listed separately; assay: in vivo; conditions: rat, po, 50 mg/kg
Source text: (§2) This oral screen is designated as phase VI.

Row | Structure (SMILES) | Tox, animals toxic/tested
13 | O=C1C=C(NCc2ccccc2)CCC1 [Compound 148] | 0/4
14 | CC(C)(C)c1ccc(NC2=CC(=O)CCC2)cc1 [Compound 150] | 0/4
15 | O=C1C=C(Nc2ccc(C(F)(F)F)cc2)CCC1 [Compound 151] | 0/4

system: Subcutaneous Pentylenetetrazol seizure; assay: sc Met subcutaneous pentylenetetrazol (Metrazol) seizure test, mice; assay type: in vivo; conditions: Mus musculus, sc, 0.5 h, 100 mg/kg, 30 min; read-out: scMet, animals protected/tested (converted)

Row | Structure (SMILES) | responders at 100 mg/kg [%]
16 | O=C1C=C(NCc2ccccc2)CCC1 [Compound 148] | 0
17 | CC(C)(C)c1ccc(NC2=CC(=O)CCC2)cc1 [Compound 150] | 0
18 | O=C1C=C(Nc2ccc(C(F)(F)F)cc2)CCC1 [Compound 151] | 0

same assay, conditions: Mus musculus, sc, 0.5 h, 300 mg/kg, 30 min; read-out: scMet, animals protected/tested (converted)

Row | Structure (SMILES) | responders at 300 mg/kg [%]
19 | O=C1C=C(NCc2ccccc2)CCC1 [Compound 148] | 0
20 | CC(C)(C)c1ccc(NC2=CC(=O)CCC2)cc1 [Compound 150] | 60
21 | O=C1C=C(Nc2ccc(C(F)(F)F)cc2)CCC1 [Compound 151] | 0

same assay, conditions: Mus musculus, sc, 4 h, 100 mg/kg, 4 h; read-out: scMet, animals protected/tested (converted)

Row | Structure (SMILES) | responders at 100 mg/kg [%]
22 | O=C1C=C(NCc2ccccc2)CCC1 [Compound 148] | 0
23 | CC(C)(C)c1ccc(NC2=CC(=O)CCC2)cc1 [Compound 150] | 0
24 | O=C1C=C(Nc2ccc(C(F)(F)F)cc2)CCC1 [Compound 151] | 0

same assay, conditions: Mus musculus, sc, 4 h, 300 mg/kg, 4 h; read-out: scMet, animals protected/tested (converted)

Row | Structure (SMILES) | responders at 300 mg/kg [%]
25 | O=C1C=C(NCc2ccccc2)CCC1 [Compound 148] | 0
26 | CC(C)(C)c1ccc(NC2=CC(=O)CCC2)cc1 [Compound 150] | 0
27 | O=C1C=C(Nc2ccc(C(F)(F)F)cc2)CCC1 [Compound 151] | 0

system: Maximal electroshock seizures; assay: Phase VI oral MES test, rats; assay type: in vivo; conditions: Rattus norvegicus, 0.5 h; oral, 50 mg/kg, 0.50 h; read-out: MES, animals protected/tested (converted)
Source text: as §1, §2

Row | Structure (SMILES) | responders at 50 mg/kg [%]
28 | O=C1C=C(NCc2ccccc2)CCC1 [Compound 148] | 50
29 | CC(C)(C)c1ccc(NC2=CC(=O)CCC2)cc1 [Compound 150] | 50
30 | O=C1C=C(Nc2ccc(C(F)(F)F)cc2)CCC1 [Compound 151] | 25

same assay, conditions: Rattus norvegicus; oral, 50 mg/kg, 0.25 h; read-out: MES, animals protected/tested (converted)

Row | Structure (SMILES) | responders at 50 mg/kg [%]
31 | O=C1C=C(NCc2ccccc2)CCC1 [Compound 148] | 0
32 | CC(C)(C)c1ccc(NC2=CC(=O)CCC2)cc1 [Compound 150] | 50
33 | O=C1C=C(Nc2ccc(C(F)(F)F)cc2)CCC1 [Compound 151] | 75

same assay, conditions: Rattus norvegicus; oral, 50 mg/kg, 1.00 h; read-out: MES, animals protected/tested (converted)

Row | Structure (SMILES) | responders at 50 mg/kg [%]
34 | O=C1C=C(NCc2ccccc2)CCC1 [Compound 148] | 50
35 | CC(C)(C)c1ccc(NC2=CC(=O)CCC2)cc1 [Compound 150] | 75
36 | O=C1C=C(Nc2ccc(C(F)(F)F)cc2)CCC1 [Compound 151] | 25

same assay, conditions: Rattus norvegicus; oral, 50 mg/kg, 2.00 h; read-out: MES, animals protected/tested (converted)

Row | Structure (SMILES) | responders at 50 mg/kg [%]
37 | O=C1C=C(NCc2ccccc2)CCC1 [Compound 148] | 50
38 | CC(C)(C)c1ccc(NC2=CC(=O)CCC2)cc1 [Compound 150] | 25
39 | O=C1C=C(Nc2ccc(C(F)(F)F)cc2)CCC1 [Compound 151] | 50

same assay, conditions: Rattus norvegicus; oral, 50 mg/kg, 4.00 h; read-out: MES, animals protected/tested (converted)

Row | Structure (SMILES) | responders at 50 mg/kg [%]
40 | O=C1C=C(NCc2ccccc2)CCC1 [Compound 148] | 75
41 | CC(C)(C)c1ccc(NC2=CC(=O)CCC2)cc1 [Compound 150] | 50
42 | O=C1C=C(Nc2ccc(C(F)(F)F)cc2)CCC1 [Compound 151] | 0

system: seizures; assay: Anticonvulsant evaluation (ASP phase I / overall); assay type: in vivo, mice; conditions: Mus musculus, ip; Phase I; read-out: ASP Classification
Procedure: The first phase of the ADD Program involved performing tests on male Carworth Farms #1 mice. […] Three tests were performed:
as §1
The animal is observed for 30 minutes.

Row | Structure (SMILES) | minimal effective dose [mg/kg]
43 | O=C1C=C(NCc2ccccc2)CCC1 [Compound 148] | < 100
44 | CC(C)(C)c1ccc(NC2=CC(=O)CCC2)cc1 [Compound 150] | < 100
45 | O=C1C=C(Nc2ccc(C(F)(F)F)cc2)CCC1 [Compound 151] | < 100

From patent US5616615A, “Enaminone esters” (priority 1995, dated 1997)
